Experimental data taken from paper PMC8064491, “Design and Synthesis of Novel Symmetric Fluorene-2,7-Diamine Derivatives as Potent Hepatitis C Virus Inhibitors” (Pharmaceuticals, 2021).
Like-named read-outs stand apart in the source and are kept apart here.

Assays:
[1] = tested on: HCV subgenomic reporter replicon of genotype 1b (strain Con1); assay: Anti-HCV 1b activity, luciferase reporter replicon assay in Huh5-2 cells; type: cell-based, Hepatitis C virus; settings: for EC50: read-out: HCV Replicon 1b EC50; for HCV Replicon 1b SI50: SI50 = CC50/EC50; for fold more potent than six-membered congeners: 1, 9, 17, 21 vs 29, 30, 31, 32 respectively
Protocol: (§1) The HCV RNA replication inhibitory effect of the novel compounds and their impact on cell viability was tested in the stable cell line Huh5-2 carrying an HCV subgenomic reporter replicon of genotype 1b (strain Con1). The viral replication level was measured in terms of the activity of the co-expressed firefly luciferase (F-Luc). Several concentrations of the tested compounds were prepared in a cell culture medium and were used to treat the cells for 72 h. The solvent DMSO was added as a control with a final concentration of 0.2% so as not to impact viral replication (data not shown). First, different compound concentrations of up to 100 μM were evaluated for their effect on cell viability; results are reported as the median cytotoxic concentration (CC50). Next, all compounds were screened for their anti-HCV activity at a concentration of 1 µM, and compounds showing ≥50% activity were further tested in several concentrations to calculate the median effective concentration (EC50) values (Table 1 and Table 2). The anti-HCV activity of the analogs 1–32 was estimated by quantifying luciferase activity resulting from viral replication. Cytotoxicity was determined by measuring the intracellular levels of ATP. The selectivity index (SI50) was calculated as the ratio of CC50 to EC50 and was calculated as an indication of the compounds’ safety. We used daclatasvir as a positive control.
(§2) The stable replicon cell line Huh5-2 (genotype 1b; Con1) (kindly provided by R. Bartenschlager, Heidelberg University, Germany) has been described previously. The stable cell lines Huh7.5-3a and Huh7.5-4a have been constructed with the subgenomic reporter replicons of HCV 3a (S52) S52-SG(Feo)(AII) and HCV 4a (ED43) ED43-SG(Feo)(VYG) (kindly provided by C.M. Rice, The Rockefeller University, NY). Cells were cultured in high glucose (25 mM) Dulbecco’s modified minimal essential medium (Invitrogen), supplemented with 2 mM L-glutamine, 0.1 mM non-essential amino acids, 100 U/mL penicillin, 100 µg/mL streptomycin, and 10% (v/v) fetal calf serum (referred to as complete DMEM). Complete DMEM was supplemented with G418 at 500 μg/mL for Huh5-2, 750 μg/mL for Huh7.5-3a, and 350 μg/mL for Huh7.5-4a.
(§3) Cells were treated with serial dilutions of the test compounds or the solvent DMSO for 72 h. Antiviral activity and cytotoxicity were determined by measuring virus-derived luciferase activity or intracellular ATP levels, respectively. The median effective concentration (EC50) of the compounds, reducing luciferase signal by 50%, and their median cytotoxic concentration (CC50), causing 50% cell death, were determined by nonlinear regression analysis using the Prism 6.0 software (GraphPad Software Inc.). Daclatasvir was kindly provided by Dr. Marc Windisch (Institut Pasteur Korea).
Firefly luciferase activity was measured using Luciferase Assay System (Promega), according to the manufacturer’s instructions. Measurements were performed with a GloMax 20/20 single tube luminometer (Promega) for 10 s. Values were normalized to total protein amounts as quantified by Bradford assay (Pierce).

[2] = Cytotoxicity by intracellular ATP levels; type: cell-based; settings: human, Huh5-2 cells, read-out: HCV Replicon 1b CC50
Protocol: as §1, §3
(§4) ATP was measured using the ViaLight HS BioAssay kit (Lonza) according to the manufacturer’s protocol in a GloMax 20/20 single-tube luminometer (Promega) for 1 s. Values were normalized to total protein amounts.

[3] = tested on: HCV subgenomic replicon of genotype 3a (strain S52); assay: Anti-HCV 3a activity, replicon assay in Huh7.5-3a cells; type: cell-based, Hepatitis C virus; settings: Hepatitis C virus; Huh7.5-3a cells; read-out: EC50 GT 3a
Text: Compound 26, showing the highest activity on genotype 1b was further tested against HCV 3a and 4a replicons. The fact that genotype 4 is highly heterogeneous, of less response to DAAs, and the most prevalent genotype in Egypt, made this genotype of specific interest. Moreover, genotype 3 is the most difficult to treat genotype using DAAs, especially in patients with liver cirrhosis. Specifically, Huh7.5-3a and Huh7.5-4a stable cell lines having HCV subgenomic replicons of genotypes 3a (strain S52) and 4a (strain ED43), respectively, were treated with different concentrations of compound 26. […] Further structural optimization is required, and testing compound 26 in combination with other DAAs could improve the clinical outcome.
as §2
Cells were treated with serial dilutions of the test compounds or the solvent DMSO for 72 h. Antiviral activity and cytotoxicity were determined by measuring virus-derived luciferase activity or intracellular ATP levels, respectively. […]
Firefly luciferase activity was measured using Luciferase Assay System (Promega), according to the manufacturer’s instructions. […] Values were normalized to total protein amounts as quantified by Bradford assay (Pierce).

Huh5-2 cells = assay: Cytotoxicity by intracellular ATP levels; type: cell-based; settings: 72 h, read-out: HCV Replicon 1b CC50
Protocol: as §1, §3, §4

[4] = Hepatitis C virus, Huh-5-2, Huh5-2 cells, 72 h, luciferase activity
[5] = Hepatitis C virus, Huh-5-2, 72 h
[6] = Huh5-2 cells, 72 h, luciferase activity

Molecule | HCV Replicon 1b SI50 [1] | CC50 at 72 h [2] | EC50 [1, 5] | EC50 [1, 6] | CC50 (Huh5-2 cells) | other results
O=C(N[C@H](C(=O)N1CCC[C@H]1C(=O)Nc1ccc2c(c1)Cc1cc(NC(=O)[C@@H]3CCCN3C(=O)[C@@H](NC(=O)OCc3ccccc3)c3ccccc3)ccc1-2)c1ccccc1)OCc1ccccc1 [Compound 24, Dibenzyl((1S,1’S)-((2S,2’S)-(((9H-fluorene-2,7-diyl)bis(azanediyl))bis(carbonyl))bis(pyrrolidine-2,1-diyl))bis(2-oxo-1-phenylethane-2,1-diyl))dicarbamate] | >89,606 | > 100000 nM |  |  |  | EC50 [1, 4]: 1.12 nM
COC(=O)N[C@@H](C(=O)N1CCC[C@H]1C(=O)Nc1ccc2c(c1)Cc1cc(NC(=O)[C@@H]3CCCN3C(=O)[C@H](NC(=O)OC)c3ccccc3)ccc1-2)c1ccccc1 [Compound 25, Dimethyl((1R,1’R)-((2S,2’S)-(((9H-fluorene-2,7-diyl)bis(azanediyl))bis(carbonyl))bis(pyrrolidine-2,1-diyl))bis(2-oxo-1-phenylethane-2,1-diyl))dicarbamate] | 669,874 | 95400 nM | 0.142 nM |  |  | fold more active than S counterparts ([1]; 25 vs 21, 26 vs 22, HCV 1b EC50 ratio): 60 fold; times less potent than compound 26 ([1]; HCV 1b EC50 ratio): four times less potent
CCCCOC(=O)N[C@@H](C(=O)N1CCC[C@H]1C(=O)Nc1ccc2c(c1)Cc1cc(NC(=O)[C@@H]3CCCN3C(=O)[C@H](NC(=O)OCCCC)c3ccccc3)ccc1-2)c1ccccc1 [Compound 27, Dibutyl((1R,1’R)-((2S,2’S)-(((9H-fluorene-2,7-diyl)bis(azanediyl))bis(carbonyl))bis(pyrrolidine-2,1-diyl))bis(2-oxo-1-phenylethane-2,1-diyl))dicarbamate] | >24,795 | > 100000 nM | 4.03 nM |  |  | times less potent than compound 26 ([1]; HCV 1b EC50 ratio): 100 times
O=C(N[C@@H](C(=O)N1CCC[C@H]1C(=O)Nc1ccc2c(c1)Cc1cc(NC(=O)[C@@H]3CCCN3C(=O)[C@H](NC(=O)OCc3ccccc3)c3ccccc3)ccc1-2)c1ccccc1)OCc1ccccc1 [Compound 28, Dibenzyl((1R,1’R)-((2S,2’S)-(((9H-fluorene-2,7-diyl)bis(azanediyl))bis(carbonyl)) Bis(pyrrolidine-2,1-diyl))bis(2-oxo-1-phenylethane-2,1-diyl))dicarbamate] | >1,058 | > 100000 nM |  |  |  | times less potent than compound 26 ([1]; HCV 1b EC50 ratio): 2363 times; EC50 [1, 4]: 94.5 nM
COC(=O)N[C@H](C(=O)N1CCCC(C(=O)Nc2ccc3c(c2)Cc2cc(NC(=O)C4CCCN(C(=O)[C@@H](NC(=O)OC)C(C)C)C4)ccc2-3)C1)C(C)C (stereo partly drawn) [Compound 29] | >292 | > 100000 nM | 342 nM |  |  | 
COC(=O)N[C@@H](CC(C)C)C(=O)N1CCCC(C(=O)Nc2ccc3c(c2)Cc2cc(NC(=O)C4CCCN(C(=O)[C@H](CC(C)C)NC(=O)OC)C4)ccc2-3)C1 (stereo partly drawn) [Compound 30] | >346 | > 100000 nM | 289 nM |  |  | 
CCC(C)[C@H](NC(=O)OC)C(=O)N1CCCC(C(=O)Nc2ccc3c(c2)Cc2cc(NC(=O)C4CCCN(C(=O)[C@@H](NC(=O)OC)C(C)CC)C4)ccc2-3)C1 (stereo partly drawn) [Compound 31] | 333 | 98300 nM | 296 nM |  |  | 
COC(=O)N[C@H](C(=O)N1CCCC(C(=O)Nc2ccc3c(c2)Cc2cc(NC(=O)C4CCCN(C(=O)[C@@H](NC(=O)OC)c5ccccc5)C4)ccc2-3)C1)c1ccccc1 (stereo partly drawn) [Compound 32] | >328 | > 100000 nM | 304 nM |  |  | 
COC(=O)N[C@H](C(=O)N1CCC[C@H]1c1nc(-c2ccc(-c3ccc(-c4c[nH]c([C@@H]5CCCN5C(=O)[C@@H](NC(=O)OC)C(C)C)n4)cc3)cc2)c[nH]1)C(C)C [Daclatasvir, reference compound] | 655,556 | 17700 nM |  |  |  | EC50 [1, 4]: 0.027 nM; EC50 [3]: 8.3 nM
CC(C)(C)OC(=O)N1CCCC(C(=O)Nc2ccc3c(c2)Cc2cc(NC(=O)C4CCCN(C(=O)OC(C)(C)C)C4)ccc2-3)C1 (stereo not drawn) [IV, Di-tert-butyl3,3’-(((9H-fluorene-2,7diyl)bis(azanediyl))bis(carbonyl))bis(piperidine-1-carboxylate)] |  | 45000 nM |  |  |  | EC50 [1, 4]: > 1000 nM
Dibenzyl((2S,2’S)-((2S,2’S)-(((9H-fluorene-2,7-diyl)bis(azanediyl))bis(carbonyl))bis(pyrrolidine-2,1-diyl))bis(3-methyl-1-oxopentane-1,2-diyl))dicarbamate [Compound 12] |  |  |  | > 1000 nM | 46400 nM | 
Dibenzyl((2S,2’S)-((2S,2’S)-(((9H-fluorene-2,7-diyl)bis(azanediyl))bis(carbonyl))bis(pyrrolidine-2,1-diyl))bis(4-methyl-1-oxopentane-1,2-diyl))dicarbamate [Compound 20] |  |  |  | > 1000 nM | 98700 nM | 
Diethyl((2S,2’S)-((2S,2’S)-(((9H-fluorene-2,7 diyl)bis(azanediyl))bis(carbonyl)) bis(pyrrolidine-2,1-diyl))bis(4-methyl-1-oxopentane-1,2-diyl))dicarbamate [Compound 18] | >664 |  |  | 151 nM | > 100000 nM | 
Diethyl((2S,2’S)-((2S,2’S)-(((9H-fluorene-2,7-diyl)bis(azanediyl))bis(carbonyl))bis(pyrrolidine-2,1-diyl))bis(3-methyl-1-oxopentane-1,2-diyl))dicarbamate [Compound 10] | 622,344 |  |  | 0.137 nM | 85500 nM | fold more potent than congener with D-leucine moiety ([1]; HCV 1b EC50 ratio): 18 fold
Dimethyl((2S,2’S)-((2S,2’S)-(((9H-fluorene-2,7-diyl)bis(azanediyl))bis (carbonyl)) bis(pyrrolidine-2,1-diyl))bis(4-methyl-1-oxopentane-1,2-diyl))dicarbamate [Compound 17] | >9381 |  |  | 10.7 nM | > 100000 nM | fold more potent than six-membered congeners ([1]; HCV 1b EC50 ratio): 28 fold
Dimethyl((2S,2’S)-((2S,2’S)-(((9H-fluorene-2,7-diyl)bis(azanediyl))bis(carbonyl))bis(pyrrolidine-2,1-diyl))bis(3-methyl-1-oxopentane-1,2-diyl))dicarbamate [Compound 9] | >3636 |  |  | 27.5 nM | > 100000 nM | fold more potent than six-membered congeners ([1]; HCV 1b EC50 ratio): 11 fold; times less active than R congener compound 13 ([1]; HCV 1b EC50 ratio): around 340 times
